Data on one compound can be found in publication PMC6049614 (Chemical Communications (Cambridge, England), 2018).

Where a SMILES comes first, the peptide text is derived from it. Bridges are numbered along the chain shown (N, C = ends). [ ]: non-standard residue; d: D form. The star is where a group is joined. X1 = O=C(O)CN1CCN(CC(=O)O)CCN(Cc2ccc(CC(=O)*)cc2)CC1; Mpa = O=C(O)CCS

The nature of series [1]: in vivo. The note with it: rat. Here is the method: To investigate the plausibility of i.n. administration for OT-like therapies, given the similar structure and hydrophilic profile between AlF-NODA-dLVT and OT, in vivo tissue distribution of [^18F]AlF-NODA-dLVT was determined following i.n. or i.v. administration. […]. Here, it is anticipated that both routes show independent kinetic and metabolic profiles and the extended apparent availability of OT following i.n. administration supports a longer timeframe for this study.[27],[28] Distribution was determined through gamma counting of radioactivity in isolated tissue. A large portion underwent excretion via kidneys (i.v. 4.6 ± 0.4%ID per g; i.n. 1.31 ± 0.7%ID per g) and urine (i.v. 2.5 ± 1.2%ID per g; i.n. 7.7 ± 2.2%ID per g), as expected from the hydrophilic character of the tracer, similar to previous results found with radiolabelled OT given i.v. (Fig. 4A).[29]
Supplementary Figure 5: Pharmacokinetic data acquired from three individual rats showing plasma clearance of AlF-NODA-dLVT over time. Rats received a dose of AlF-NODA-dLVT by tail vein injection (0.08 mg/kg), and blood plasma samples were taken at the specified time point for quantitative analysis by mass spectrometry. […]
Supplementary Figure 6: Transaxial nanoPET scan showing distribution over time of [18F]AlF-NODA-dLVT. Tracer was administered either by i.v. bolus (top) or intranasally (bottom) in rat. […]

Series [2] deals with T1, human V1a receptors (Homo sapiens, UniProt P37288).
T1 construct: expressed in transfected cells
T1 sequence (P37288 whole entry): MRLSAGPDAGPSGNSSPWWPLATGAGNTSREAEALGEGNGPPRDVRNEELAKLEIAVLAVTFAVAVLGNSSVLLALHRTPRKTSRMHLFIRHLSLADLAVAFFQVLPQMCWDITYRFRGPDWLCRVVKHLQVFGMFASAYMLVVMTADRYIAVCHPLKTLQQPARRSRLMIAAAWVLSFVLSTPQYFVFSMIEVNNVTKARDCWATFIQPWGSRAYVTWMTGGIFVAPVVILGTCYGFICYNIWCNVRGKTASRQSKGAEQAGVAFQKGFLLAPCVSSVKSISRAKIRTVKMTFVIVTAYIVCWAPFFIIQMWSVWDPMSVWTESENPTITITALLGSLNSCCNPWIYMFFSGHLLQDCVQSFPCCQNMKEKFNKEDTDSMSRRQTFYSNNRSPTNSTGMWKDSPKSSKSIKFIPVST
Briefly: Scintillation proximity assay, displacement of [3H]AVP from human V1a receptor. The class given is binding. The source says:
(§1) OT analogues were screened in scintillation proximity assays that displace [^3H]OT or [^3H]AVP from the corresponding receptors. […]
(§2) All RCYs reported are decay corrected to the time of 18F delivery. The protocols for performing
(§3) receptor radioligand binding and potency studies on transfected cells to determine affinity
(In general: Scintillation proximity formats need no separation of bound from free tracer.)

Series [3] addresses T2, human vasopressin receptor V2 (Homo sapiens, UniProt P30518).
T2 construct: expressed in transfected cells
Put plainly: Scintillation proximity assay, displacement of [3H]AVP from human V2 receptor. Format: binding.
Excerpt: as §1, §2, §3

For series [4], the target named is T3, human vasopressin receptor V1b (Homo sapiens, UniProt P47901).
T3 construct: expressed in transfected cells
T3 sequence (P47901 1-424): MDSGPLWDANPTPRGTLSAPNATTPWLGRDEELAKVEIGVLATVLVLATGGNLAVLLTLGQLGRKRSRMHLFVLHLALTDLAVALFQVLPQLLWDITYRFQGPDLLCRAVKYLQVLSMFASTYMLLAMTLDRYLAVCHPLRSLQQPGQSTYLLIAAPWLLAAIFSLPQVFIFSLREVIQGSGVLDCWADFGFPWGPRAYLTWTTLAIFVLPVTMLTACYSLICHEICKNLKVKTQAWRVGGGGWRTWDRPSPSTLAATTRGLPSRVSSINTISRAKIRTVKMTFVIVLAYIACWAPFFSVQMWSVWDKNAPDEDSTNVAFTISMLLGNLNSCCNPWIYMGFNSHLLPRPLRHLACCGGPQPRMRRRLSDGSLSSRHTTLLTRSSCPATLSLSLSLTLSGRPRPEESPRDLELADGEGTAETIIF
Put plainly: Scintillation proximity assay, displacement of [3H]AVP from human V1b receptor. Format: binding. The source says: OT analogues were screened in scintillation proximity assays that displace [^3H]OT or [^3H]AVP from the corresponding receptors. All peptides screened, including in a reduced state, preferentially bound human OTR with nanomolar affinity (Table 1). In line with previous studies, conjugation of a large group to position 8 afforded analogues with increased selectivity and improved affinity towards OTR[15] (approximately 60-fold for AlF-NODA-dLVT, and 7-fold for dLVT; Table 1 and ESI, ^† Fig. S1). […]. […]
tracer, a probe for nose-to-brain oxytocin uptake in vivo
Rhiannon Beard1; Nisha Singh2,3; Christophe Grundschober4; Antony D. Gee2 and Edward W. […]
a.1Department of Chemistry, Imperial College London, Exhibition Road, London, SW7 2AZ, UK; 2Division of Imaging Sciences, King’s College London, 4th Floor, Lambeth Wing, St Thomas’ Hospital, SE1, 7EH, London, UK; 3Centre for Neuroimaging Sciences, IoPPN, KCL, De Crespigny Park, London, SE5 8AF, UK; and 4 Roche Pharma Research and Early Development, Discovery Neuroscience, Roche Innovation Center Basel, F. Hoffmann-La Roche Ltd, Grenzacherstrasse 124, 4070 Basel, Switzerland […]
All RCYs reported are decay corrected to the time of 18F delivery. The protocols for performing receptor radioligand binding and potency studies on transfected cells to determine affinity constants have been reported elsewhere. 1 […]

Series [5] deals with T4, human OTR (Homo sapiens, UniProt P30559).
T4 construct: expressed in transfected cells
T4 sequence (P30559 1-389): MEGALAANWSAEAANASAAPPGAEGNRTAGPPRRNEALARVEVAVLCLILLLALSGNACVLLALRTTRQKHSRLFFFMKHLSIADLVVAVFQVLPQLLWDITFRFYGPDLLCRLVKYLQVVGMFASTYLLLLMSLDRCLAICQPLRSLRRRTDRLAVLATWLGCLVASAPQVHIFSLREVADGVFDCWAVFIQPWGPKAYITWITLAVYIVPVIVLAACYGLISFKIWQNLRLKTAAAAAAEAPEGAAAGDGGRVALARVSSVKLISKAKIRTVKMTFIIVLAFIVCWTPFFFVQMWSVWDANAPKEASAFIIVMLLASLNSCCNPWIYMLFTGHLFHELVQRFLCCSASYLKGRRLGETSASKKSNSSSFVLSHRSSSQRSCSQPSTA
Briefly: Scintillation proximity assay, displacement of [3H]OT from human OTR. The class given is binding.
Excerpt: as §1, §2, §3

T2 sequence (P30518 whole entry): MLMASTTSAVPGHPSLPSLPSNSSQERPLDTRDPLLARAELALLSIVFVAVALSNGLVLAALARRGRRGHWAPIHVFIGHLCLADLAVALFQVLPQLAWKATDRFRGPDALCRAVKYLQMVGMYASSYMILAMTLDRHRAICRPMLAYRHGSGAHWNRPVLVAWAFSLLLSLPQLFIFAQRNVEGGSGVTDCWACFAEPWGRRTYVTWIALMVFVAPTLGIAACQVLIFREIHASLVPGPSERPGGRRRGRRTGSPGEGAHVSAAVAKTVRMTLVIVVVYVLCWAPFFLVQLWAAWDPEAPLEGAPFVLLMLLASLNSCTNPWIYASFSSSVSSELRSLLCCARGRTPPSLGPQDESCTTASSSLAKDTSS

By half-life is commonly meant how long it takes for the measured level to halve. Broadly, the Ki is the dissociation constant of the complex between target and ligand, obtained from inhibition or displacement. High values mean lower affinity, low ones higher affinity. `CC[C@H](C)[C@@H]1NC(=O)[C@H](Cc2ccc(O)cc2)NC(=O)CCSSC[C@@H](C(=O)N2CCC[C@H]2C(=O)N[C@@H](CCCCNC(=O)Cc2ccc(CN3CCN(CC(=O)O)CCN(CC(=O)O)CC3)cc2)C(=O)NCC(N)=O)NC(=O)[C@H](CC(N)=O)NC(=O)[C@H](CCC(N)=O)NC1=O` [AlF-NODA-dLVTc] ([Mpa]YIQNCPK(X1)G-NH2; disulfide 1-6): the half-life in series [1] (Wistar, iv, 0.08 mg/kg) was 14 min. Also, in series [1], the “increase in half-life compared to OT” value is given as “approximately 5 fold”. Further, the Ki in series [2] is 0.157 ± 0.026 µM; in series [3], over 6 µM; in series [4] it was over 6 µM; in series [5] (human OTR), 0.0026 ± 0.0017 µM. For the same compound, the “selectivity towards OTR” value in series [5] (OTR over V1a, from Ki values of Table 1) is “approximately 60 fold”.
